According to US8476298B2 (Exelixis, Inc., priority 2003, dated 2013):

How the values were obtained:
[1] = molecular target: T1, c-Met (baculovirus expressed human c-Met kinase domain P948-S1343) (Homo sapiens, UniProt P08581); assay: c-Met Luciferase-Coupled Chemiluminescent Kinase assay (LCCA); format: biochemical; details: Table 4, inhibition as IC50 class;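 also: kinase activity read as percent ATP left after reaction, by luciferase-luciferin chemiluminescence, with 1 µM ATP and 1 µM poly-EY substrate, 2 h at ambient temperature, 10-point dose-response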
T1 construct: human c-Met kinase domain P948-S1343; host or cells: baculovirus expression
T1 sequence (P08581 1011-1343 limits assumed): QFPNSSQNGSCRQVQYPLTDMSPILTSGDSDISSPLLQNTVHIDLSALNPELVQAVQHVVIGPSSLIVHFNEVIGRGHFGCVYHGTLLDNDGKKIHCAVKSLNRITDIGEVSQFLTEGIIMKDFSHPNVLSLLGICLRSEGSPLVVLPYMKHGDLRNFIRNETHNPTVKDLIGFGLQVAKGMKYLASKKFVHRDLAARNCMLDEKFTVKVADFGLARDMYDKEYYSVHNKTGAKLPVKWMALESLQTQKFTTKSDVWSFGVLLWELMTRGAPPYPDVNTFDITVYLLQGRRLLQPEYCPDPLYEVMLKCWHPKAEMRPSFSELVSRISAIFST

[2] = molecular target: T2, KDR (baculovirus expressed human KDR kinase domain D807-V1356) (Homo sapiens, UniProt P35968); assay: biochemical; details: Table 4, inhibition as IC50 class;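 also: Luciferase-coupled chemiluminescent kinase assay, activity read as percent ATP left after 4 h reaction at ambient temperature, ATP near KM, 10-point dose-response in 384-well plates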
T2 construct: human KDR kinase domain D807-V1356; host or cells: baculovirus expression
T2 sequence (P35968 807-1356): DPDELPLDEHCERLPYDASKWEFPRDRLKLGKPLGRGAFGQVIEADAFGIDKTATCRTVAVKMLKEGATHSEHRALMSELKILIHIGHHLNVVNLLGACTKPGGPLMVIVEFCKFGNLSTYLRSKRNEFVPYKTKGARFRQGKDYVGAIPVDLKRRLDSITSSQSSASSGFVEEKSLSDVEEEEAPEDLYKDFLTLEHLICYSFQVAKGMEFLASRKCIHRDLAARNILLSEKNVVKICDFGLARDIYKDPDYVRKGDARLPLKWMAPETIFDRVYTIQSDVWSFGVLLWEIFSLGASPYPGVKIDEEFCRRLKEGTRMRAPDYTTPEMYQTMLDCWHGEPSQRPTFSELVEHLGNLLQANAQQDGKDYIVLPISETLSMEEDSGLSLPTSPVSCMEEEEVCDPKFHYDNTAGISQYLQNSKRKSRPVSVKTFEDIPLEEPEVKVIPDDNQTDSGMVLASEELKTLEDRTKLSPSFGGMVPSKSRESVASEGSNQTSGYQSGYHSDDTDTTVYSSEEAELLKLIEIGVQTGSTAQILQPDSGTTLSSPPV

[3] = molecular target: T3, Flt-4 (baculovirus expressed human Flt-4 kinase domain D725-R1298) (Homo sapiens, UniProt P35916); assay: flt-4 Alphascreen Tyrosine Kinase assay; format: biochemical; details: Table 4, inhibition as IC50 class; read-out: flt4 IC50;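 also: AlphaScreen chemiluminescence read-out of biotinylated poly(Glu,Tyr) 4:1 phosphorylation via streptavidin donor and PY100 anti-phosphotyrosine acceptor beads, ATP near KM, 1 hr kinase reaction, 10-point dose-response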
T3 construct: human Flt-4 kinase domain D725-R1298; host or cells: baculovirus expression
T3 sequence (P35916 725-1298 isoform P35916-1): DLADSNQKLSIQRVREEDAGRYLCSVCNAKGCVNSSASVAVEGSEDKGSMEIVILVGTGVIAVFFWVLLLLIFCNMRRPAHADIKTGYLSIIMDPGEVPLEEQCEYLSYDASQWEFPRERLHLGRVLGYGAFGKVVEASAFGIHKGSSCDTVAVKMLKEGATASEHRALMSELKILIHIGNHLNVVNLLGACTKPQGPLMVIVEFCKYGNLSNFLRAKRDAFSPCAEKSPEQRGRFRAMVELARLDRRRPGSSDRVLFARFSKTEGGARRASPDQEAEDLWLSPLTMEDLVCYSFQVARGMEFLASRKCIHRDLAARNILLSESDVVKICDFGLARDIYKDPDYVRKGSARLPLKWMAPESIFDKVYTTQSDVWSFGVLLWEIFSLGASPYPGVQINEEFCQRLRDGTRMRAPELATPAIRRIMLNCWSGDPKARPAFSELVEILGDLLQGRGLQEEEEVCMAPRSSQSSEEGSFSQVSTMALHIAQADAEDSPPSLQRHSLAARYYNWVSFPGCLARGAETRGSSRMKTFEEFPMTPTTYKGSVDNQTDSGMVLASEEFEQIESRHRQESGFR

c-Kit kinase = c-Kit kinase (Homo sapiens, UniProt P10721); assay: c-Kit AlphaScreen kinase assay; format: biochemical; details: Table 4, inhibition as IC50 class;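 also: c-Kit kinase phosphorylating biotinylated poly(Glu,Tyr), ATP near its KM, 1 h reaction at ambient temperature, AlphaScreen chemiluminescence with streptavidin donor and anti-phosphotyrosine acceptor beads, 10-point inhibitor titration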
c-Kit kinase, sequence (P10721 26-976): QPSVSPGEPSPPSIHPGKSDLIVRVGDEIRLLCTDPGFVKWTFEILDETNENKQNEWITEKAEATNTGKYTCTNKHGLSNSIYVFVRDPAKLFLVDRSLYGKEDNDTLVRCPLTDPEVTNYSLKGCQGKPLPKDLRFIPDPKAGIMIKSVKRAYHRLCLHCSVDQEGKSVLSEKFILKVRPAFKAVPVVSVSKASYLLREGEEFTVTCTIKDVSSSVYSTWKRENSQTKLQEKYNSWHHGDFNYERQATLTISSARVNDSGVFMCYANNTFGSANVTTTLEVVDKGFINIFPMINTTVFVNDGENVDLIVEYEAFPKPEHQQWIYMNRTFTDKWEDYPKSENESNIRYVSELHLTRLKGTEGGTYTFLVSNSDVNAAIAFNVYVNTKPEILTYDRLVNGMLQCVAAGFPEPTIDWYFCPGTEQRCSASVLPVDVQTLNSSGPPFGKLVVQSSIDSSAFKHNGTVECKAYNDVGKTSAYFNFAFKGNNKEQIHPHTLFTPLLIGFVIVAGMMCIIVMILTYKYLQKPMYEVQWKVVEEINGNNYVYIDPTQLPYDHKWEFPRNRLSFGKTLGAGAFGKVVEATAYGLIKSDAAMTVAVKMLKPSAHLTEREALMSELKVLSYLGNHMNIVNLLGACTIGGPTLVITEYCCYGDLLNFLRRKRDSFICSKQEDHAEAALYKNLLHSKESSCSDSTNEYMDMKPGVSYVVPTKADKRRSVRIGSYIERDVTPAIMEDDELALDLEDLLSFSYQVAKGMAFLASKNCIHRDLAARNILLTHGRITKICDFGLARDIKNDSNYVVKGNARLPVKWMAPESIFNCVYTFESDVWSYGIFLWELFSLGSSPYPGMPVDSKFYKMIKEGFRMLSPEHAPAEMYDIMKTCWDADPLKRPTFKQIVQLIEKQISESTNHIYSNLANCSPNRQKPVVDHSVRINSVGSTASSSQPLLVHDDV

[4] = molecular target: T4, Flt-3 (baculovirus expressed human Flt-3 kinase domain R571-S993) (Homo sapiens, UniProt P36888); assay: biochemical; details: Table 4, inhibition as IC50 class; read-out: flt3 IC50;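 also: Luciferase-coupled chemiluminescent kinase assay, activity read as percent ATP left after a 3 h reaction at room temperature, ATP near KM, 10-point dose-response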
T4 construct: human Flt-3 kinase domain R571-S993; host or cells: baculovirus expression
T4 sequence (P36888 571-993): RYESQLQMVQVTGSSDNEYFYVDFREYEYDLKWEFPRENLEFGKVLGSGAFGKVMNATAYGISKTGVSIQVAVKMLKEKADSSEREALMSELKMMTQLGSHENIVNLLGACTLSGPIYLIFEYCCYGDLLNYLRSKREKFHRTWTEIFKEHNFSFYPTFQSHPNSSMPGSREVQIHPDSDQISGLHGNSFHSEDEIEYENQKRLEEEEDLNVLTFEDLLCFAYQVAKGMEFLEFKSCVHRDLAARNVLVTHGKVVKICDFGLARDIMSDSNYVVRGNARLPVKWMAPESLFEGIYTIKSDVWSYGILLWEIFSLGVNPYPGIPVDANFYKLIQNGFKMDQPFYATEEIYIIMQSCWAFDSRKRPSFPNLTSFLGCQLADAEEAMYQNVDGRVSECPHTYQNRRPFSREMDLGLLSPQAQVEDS

| Structure (SMILES) | IC50 [1] | IC50 [2] | IC50 [3] | IC50 (c-Kit kinase) | IC50 [4] |
| --- | --- | --- | --- | --- | --- |
| COc1ccccc1CNC(=O)C(=O)Nc1ccc(Oc2ccnc3cc(OCC4CCNCC4)c(OC)cc23)c(F)c1 [Example 241, N-[3-fluoro-4-({6-(methyloxy)-7-[(piperidin-4-ylmethyl)oxy]quinolin-4-yl}oxy)phenyl]-N′-{[2-(methyloxy)phenyl]methyl}ethanediamide] | < 50 nM | < 50 nM | < 50 nM | < 50 nM | < 50 nM |
| COc1cc2c(Oc3ccc(NC(=O)C(=O)NCc4ccccc4Cl)cc3F)ccnc2cc1OCC1CCNCC1 [Example 245, N-[(2-chlorophenyl)methyl]-N′-[3-fluoro-4-({6-(methyloxy)-7-[(piperidin-4-ylmethyl)oxy]quinolin-4-yl}oxy)phenyl]ethanediamide] | < 50 nM | < 50 nM | < 50 nM | < 50 nM | < 50 nM |
| COc1cc2c(Oc3ccc(NC(=O)C(=O)NCCc4ccccc4)cc3F)ccnc2cc1OCC1CN(C)C1 [Example 250, N-(3-fluoro-4-{[7-{[(1-methylazetidin-3-yl)methyl]oxy}-6-(methyloxy)quinolin-4-yl]oxy}phenyl)-N′-(2-phenylethyl)ethanediamide] | < 50 nM | < 50 nM | < 50 nM | < 50 nM | < 50 nM |
| CC[C@@H](NC(=O)C(=O)Nc1ccc(Oc2ccnc3cc(OCC4CCNCC4)c(OC)cc23)c(F)c1)c1ccccc1 [Example 254, N-[3-fluoro-4-({6-(methyloxy)-7-[(piperidin-4-ylmethyl)oxy]quinolin-4-yl}oxy)phenyl]-N′-[(1R)-1-phenylpropyl]ethanediamide] | < 50 nM | 50 to 500 nM | 50 to 500 nM | 50 to 500 nM | 50 to 500 nM |
| COc1cc2c(Oc3ccc(NC(=O)C(=O)NCc4c(F)cccc4F)cc3F)ccnc2cc1OCC1CCNCC1 [Example 257, N-[(2,6-difluorophenyl)methyl]-N′-[3-fluoro-4-({6-(methyloxy)-7-[(piperidin-4-ylmethyl)oxy]quinolin-4-yl}oxy)phenyl]ethanediamide] | < 50 nM | < 50 nM | < 50 nM | < 50 nM | 50 to 500 nM |
| COc1cc2c(Oc3ccc(NC(=O)C(=O)NCCc4ccc(F)cc4)cc3F)ccnc2cc1OCC1CCN(C)CC1 [Example 258, N-{3-fluoro-4-[(6-(methyloxy)-7-{[(1-methylpiperidin-4-yl)methyl]oxy}quinolin-4-yl)oxy]phenyl}-N′-[2-(4-fluorophenyl)ethyl]ethanediamide] | < 50 nM | < 50 nM | < 50 nM | < 50 nM | < 50 nM |
| COc1cc2c(Oc3ccc(NC(=O)C(=O)Nc4ccccc4)cc3F)ccnc2cc1OCC1CCN(C)CC1 [Example 259, N-{3-fluoro-4-[(6-(methyloxy)-7-{[(1-methylpiperidin-4-yl)methyl]oxy}quinolin-4-yl)oxy]phenyl}-N′-phenylethanediamide] | < 50 nM | 50 to 500 nM | 50 to 500 nM | 500 to 5000 nM | 500 to 5000 nM |
| COc1cc2c(Oc3ccc(NC(=O)C(=O)Nc4cccc(F)c4)cc3F)ccnc2cc1OCC1CCNCC1 [Example 260, N-[3-fluoro-4-({6-(methyloxy)-7-[(piperidin-4-ylmethyl)oxy]quinolin-4-yl}oxy)phenyl]-N′-(3-fluorophenyl)ethanediamide] | < 50 nM | 500 to 5000 nM | 500 to 5000 nM | 50 to 500 nM | 500 to 5000 nM |
| COc1cc2c(Oc3ccc(NC(=O)C(=O)Nc4ccc(F)c(Cl)c4)cc3F)ccnc2cc1OCC1CCNCC1 [Example 261, N-(3-chloro-4-fluorophenyl)-N′-[3-fluoro-4-({6-(methyloxy)-7-[(piperidin-4-ylmethyl)oxy]quinolin-4-yl}oxy)phenyl]ethanediamide] | < 50 nM | 500 to 5000 nM | 50 to 500 nM | 500 to 5000 nM | 50 to 500 nM |
| COc1ccc(NC(=O)C(=O)Nc2ccc(Oc3ccnc4cc(OCC5CCNCC5)c(OC)cc34)c(F)c2)cc1OC [Example 262, N-[3,4-bis(methyloxy)phenyl]-N′-[3-fluoro-4-({6-(methyloxy)-7-[(piperidin-4-ylmethyl)oxy]quinolin-4-yl}oxy)phenyl]ethanediamide] | < 50 nM | 500 to 5000 nM | 50 to 500 nM | 500 to 5000 nM | 50 to 500 nM |
| COc1cc2c(Oc3ccc(NC(=O)C(=O)NCCC(C)C)cc3F)ccnc2cc1OCC1CCNCC1 [Example 263, N-[3-fluoro-4-({6-(methyloxy)-7-[(piperidin-4-ylmethyl)oxy]quinolin-4-yl}oxy)phenyl]-N′-(3-methylbutyl)ethanediamide] | < 50 nM | 50 to 500 nM | 50 to 500 nM | < 50 nM | 50 to 500 nM |

Continued, values first:

| IC50 [1] | IC50 [2] | IC50 [3] | IC50 (c-Kit kinase) | IC50 [4] | Structure (SMILES) |
| --- | --- | --- | --- | --- | --- |
| < 50 nM | < 50 nM | < 50 nM | < 50 nM | < 50 nM | COc1cc2c(Oc3ccc(NC(=O)C(=O)NCc4cccc(OC(F)(F)F)c4)cc3F)ccnc2cc1OCC1CCNCC1 [Example 240, N-[3-fluoro-4-({6-(methyloxy)-7-[(piperidin-4-ylmethyl)oxy]quinolin-4-yl}oxy)phenyl]-N′-({3-[(trifluoromethyl)oxy]phenyl}methyl)ethanediamide] |
| < 50 nM | < 50 nM | 50 to 500 nM | < 50 nM | 50 to 500 nM | COc1cc2c(Oc3ccc(NC(=O)C(=O)NCc4cccc(Cl)c4)cc3F)ccnc2cc1OCC1CCNCC1 [Example 243, N-[(3-chlorophenyl)methyl]-N′-[3-fluoro-4-({6-(methyloxy)-7-[(piperidin-4-ylmethyl)oxy]quinolin-4-yl}oxy)phenyl]ethanediamide] |
| < 50 nM | < 50 nM | < 50 nM | < 50 nM | < 50 nM | COc1cc2c(Oc3ccc(NC(=O)C(=O)NCc4ccccc4OC(F)(F)F)cc3F)ccnc2cc1OCC1CCNCC1 [Example 244, N-[3-fluoro-4-({6-(methyloxy)-7-[(piperidin-4-ylmethyl)oxy]quinolin-4-yl}oxy)phenyl]-N′-({2-[(trifluoromethyl)oxy]phenyl}methyl)ethanediamide] |
| < 50 nM | 50 to 500 nM | 50 to 500 nM | 50 to 500 nM | 50 to 500 nM | COc1cc2c(Oc3ccc(NC(=O)C(=O)NCc4ccc(OC(F)(F)F)cc4)cc3F)ccnc2cc1OCC1CCNCC1 [Example 246, N-[3-fluoro-4-({6-(methyloxy)-7-[(piperidin-4-ylmethyl)oxy]quinolin-4-yl}oxy)phenyl]-N′-({4-[(trifluoromethyl)oxy]phenyl}methyl)ethanediamide] |
| < 50 nM | < 50 nM | < 50 nM | < 50 nM | 50 to 500 nM | COc1cc2c(Oc3ccc(NC(=O)C(=O)NCc4ccc(F)c(F)c4)cc3F)ccnc2cc1OCC1CCNCC1 [Example 256, N-[(3,4-difluorophenyl)methyl]-N′-[3-fluoro-4-({6-(methyloxy)-7-[(piperidin-4-ylmethyl)oxy]quinolin-4-yl}oxy)phenyl]ethanediamide] |
